Consider ten compounds from patent publication US10201546B2, “Quinolinyl modulators of RORγt” (Janssen Pharmaceutica NV, priority 2013, dated 2019).

Counter-ions that a name gives are not always drawn. Like-named read-outs stand apart in the source and are kept apart here.

The target of assay [1] is human RORγt LBD fused to the DNA binding domain of the GAL4 protein (Homo sapiens (Human), UniProt P51449). The assay is described as follows: RORγt (LBD) reporter assay in HEK293T cells. In kind it is cell-based. On the set-up: RORγt (LBD) Reporter Assay, % inhibition: dose or concentration left out as unconfirmed.
human RORγt LBD fused to the DNA binding domain of the GAL4 protein, sequence (P51449 258-518): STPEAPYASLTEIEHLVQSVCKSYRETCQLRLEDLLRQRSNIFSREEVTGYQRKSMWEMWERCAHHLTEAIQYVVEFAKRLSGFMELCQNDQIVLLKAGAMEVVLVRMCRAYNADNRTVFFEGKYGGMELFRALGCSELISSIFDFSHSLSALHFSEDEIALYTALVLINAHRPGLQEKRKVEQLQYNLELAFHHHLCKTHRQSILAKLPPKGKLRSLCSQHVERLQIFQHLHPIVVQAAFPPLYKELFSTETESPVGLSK
Text: A reporter assay was used to test functional activity of RORγt modulatory compounds on transcriptional activation driven by the RORγt LBD. Cells used in the assay were co-transfected with two constructs. The first construct, pBIND-RORγt LBD, contained the wild type human RORγt LBD fused to the DNA binding domain of the GAL4 protein. The second construct, pGL4.31 (Promega Cat no. C935A), contained multiple GAL4 responsive DNA elements upstream of firefly luciferase.
The pBIND vector contains the GAL4 DNA Binding Domain (GAL4 DBD) and the renilla luciferase gene under control of the SV40 promoter. Renilla luciferase expression serves as a control for transfection efficiency and cell viability.
The reporter assay was performed by transiently transfecting HEK293T cells with 5 μg of pBIND-RORγt LBD or pBIND-RORγt LBD-AF2 and 5 μg pGL4.31 (Promega Cat no. C935A) using Fugene 6 (Invitrogen Cat no. E2691) at a 1:6 ratio of DNA:Fugene 6 in a T-75 flask in which cells were at least 80% confluent. Twenty four hours after bulk transfection, cells were plated into 96-well plates at 50,000 cells/well in phenol-red free DMEM containing 5% Lipid Reduced FCS and Pen/Strep. Six hours after plating, cells were treated with compounds for 24 hours. Media was removed and cells were lysed with 50 μL 1× Glo Lysis Buffer (Promega). Dual Glo Luciferase Reagent (50 μL/well) was then added and firefly luciferase luminescence was read on an Envision after a ten minute incubation. Finally, Stop and Glo reagent (50 L/well) was added and renilla luciferase luminescence was read on an Envision after a ten minute incubation. To calculate the effect of compounds on RORγt activity, the ratio of firefly to renilla luciferase was determined and plotted against compound concentration. Agonist compounds increase RORγt-driven luciferase expression, and antagonist or inverse agonist compounds decrease luciferase expression.
The test system of assay [2] is IL-17 production by CD4+ T cells under conditions which favor Th17 differentiation. Briefly: Human Th17 assay (IL-17 production by CD4 T cells). In kind it is cell-based.
Experimental: The human Th17 assay tests the effect of RORγt modulatory compounds on IL-17 production by CD4 T cells under conditions which favor Th17 differentiation. Total CD4^+ T cells were isolated from the peripheral blood mononuclear cells (PBMC) of healthy donors using a CD4^+ T cell isolation kit II, following the manufacturer's instructions (Miltenyi Biotec). […] 50 μL of compound at titrated concentrations in DMSO were added into each well at final DMSO concentration at 0.2%. Cells were incubated for 1 hour, then 50 μL of Th17 cell differentiation medium was added to each well. The final concentrations of antibodies and cytokines (R&D Systems) in differentiation medium were: 3×10^6/mL anti-CD3/CD28 beads (prepared using human T cell activation/expansion kit, Miltenyi Biotec), 10 μg/mL anti-IL4, 10 μg/mL anti-IFNγ, 10 ng/mL IL113, 10 ng/mL IL23, 50 ng/mL IL6, 3 ng/mL TGFβ and 20 U/mL IL2. Cells were cultured at 37° C. and 5% CO2 for 3 days. Supernatants were collected and the accumulated IL-17 in culture was measured by using MULTI-SPOT® Cytokine Plate following manufacture's instruction (Meso Scale Discovery). The plate was read using Sector Imager 6000, and IL-17 concentration was extrapolated from the standard curve. The IC50s were determined by GraphPad.
For assay [3], the target named is human RORγt ligand binding domain (RORγt LBD) (Homo sapiens (Human), UniProt P51449). Briefly: RORγt ThermoFluor assay (thermal shift, binding affinity Kd). The settings on record: read-out: ThermoFluor Assay, Kd.
human RORγt ligand binding domain (RORγt LBD), sequence (P51449 other isoform, or with tags, fused parts or gaps): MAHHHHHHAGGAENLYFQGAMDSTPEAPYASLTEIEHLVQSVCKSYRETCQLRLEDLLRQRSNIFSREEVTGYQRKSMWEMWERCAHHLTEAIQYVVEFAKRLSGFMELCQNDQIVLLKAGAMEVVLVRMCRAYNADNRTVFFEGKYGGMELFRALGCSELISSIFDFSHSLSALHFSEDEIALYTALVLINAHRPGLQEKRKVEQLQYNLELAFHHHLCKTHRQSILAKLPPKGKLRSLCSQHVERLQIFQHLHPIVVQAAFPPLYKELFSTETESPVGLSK

Consider `COc1nc2ccc(C(O)(c3ccnc(C(F)(F)F)c3)c3cncn3C)cc2c(Cl)c1CN1CCC(C(F)(F)F)CC1` (single isomer, unassigned) [Example 100c, (4-Chloro-2-methoxy-3-((4-(trifluoromethyl)piperidin-1-yl)methyl)quinolin-6-yl)(1-methyl-1H-imidazol-5-yl)(2-(trifluoromethyl)pyridin-4-yl)methanol], for which the “RORγt (LBD) Reporter Assay, % inhibition @ 6 μM” value (“RORγt … % inhibition @ 6 μM” for short) in assay [1] came out at 100%. Also, half-maximal inhibition in assay [2] (Homo sapiens, CD4+ T) (IC50) was put at 7.6 nM.
Consider `COc1nc2ccc(C(O)(c3cnnn3C)c3cnc(C)n3C)cc2c(Cl)c1CN1CCC(C(F)(F)F)CC1` (single isomer, unassigned) [Example 106c, (4-Chloro-2-methoxy-3-((4-(trifluoromethyl)piperidin-1-yl)methyl)quinolin-6-yl)(1,2-dimethyl-1H-imidazol-5-yl)(1-methyl-1H-1,2,3-triazol-5-yl)methanol], for which, in assay [1], the “RORγt … % inhibition @ 6 μM” value is listed as 100%. Besides, the IC50 in assay [2] came to 1.4 nM.
On to `COc1nc2ccc(C(O)(c3cnc(C)n3C)C3CN(C(C)=O)C3)cc2c(Cl)c1CN1CCC(C(F)(F)F)CC1` (single isomer, unassigned) [Example 124b, 1-(3-((4-Chloro-2-methoxy-3-((4-(trifluoromethyl)piperidin-1-yl)methyl)quinolin-6-yl)(1,2-dimethyl-1H-imidazol-5-yl)(hydroxy)methyl)azetidin-1-yl)ethanone], for which, in assay [2], the IC50 is greater than 6000 nM.
Same read-out and setting: in the case of `COc1nc2ccc(C(O)(c3cnc(C)n3C)C3CN(C(C)=O)C3)cc2c(Cl)c1CN1CCC(C(F)(F)F)CC1` (single isomer, unassigned) [Example 124c, 1-(3-((4-Chloro-2-methoxy-3-((4-(trifluoromethyl)piperidin-1-yl)methyl)quinolin-6-yl)(1,2-dimethyl-1H-imidazol-5-yl)(hydroxy)methyl)azetidin-1-yl)ethanone] it was 35 nM.
As for `COc1nc2ccc(C(O)(c3ccc(C)nc3C)c3cnnn3C)cc2c(Cl)c1CC(F)(F)F` (single isomer, unassigned) [Example 143c, [4-Chloro-2-methoxy-3-(2,2,2-trifluoroethyl)quinolin-6-yl](2,6-dimethylpyridin-3-yl)(1-methyl-1H-1,2,3-triazol-5-yl)methanol], the “RORγt (LBD) Reporter Assay, % inhibition” value in assay [1] came out at 100%. Besides, the IC50 in assay [2] (Homo sapiens, CD4+ T) is 370 nM.
As for `COc1nc2ccc([C@@](O)(c3ccccc3)C3CCN(C(C)=O)CC3)cc2c(Cl)c1CC1CCOCC1` [Example 4b], the Kd in assay [3] was determined as 9 nM. For the same compound, the IC50 in assay [1] and in assay [2] was greater than 6000 nM throughout. The “RORγt … % inhibition @ 6 μM” value in assay [1] is recorded as 42%.
In the case of `CCOC(=O)c1c(C(F)(F)F)nc2ccc(C(O)(c3cccnc3)c3cccnc3)cc2c1C(F)(F)F` [Example 8, Ethyl 6-(hydroxydi(pyridin-3-yl)methyl)-2,4-bis(trifluoromethyl)quinoline-3-carboxylate.TFA], the IC50 in assay [2] (Homo sapiens) is 200 nM.
The same measure, in the same setting: in the case of `CC(C)c1c(Cl)nc2ccc(C(O)(c3cccnc3)c3cccc(Cl)c3)cc2c1Cl` (stereo not shown) [Example 19, (3-Chlorophenyl) [2,4-dichloro-3-(1-methylethyl)quinolin-6-yl]pyridin-3-ylmethanol.TFA] it was 1300 nM; in that of `CC(C)(C)c1c(/C=C/c2ccccc2)nc2ccc(C(O)(c3cccnc3)c3cccc(Cl)c3)cc2c1Cl` (stereo not shown) [Example 27, {3-tert-Butyl-4-chloro-2-[(E)-2-phenylethenyl]quinolin-6-yl}(3-chlorophenyl)pyridin-3-ylmethanol.TFA], roughly 3000 nM.
As to `COc1nc2ccc(C(O)(c3cnc(C)n3C)c3cnc(C)n3C)cc2c(Cl)c1CN1CCC(C(F)(F)F)CC1` [Example 111, (4-Chloro-2-methoxy-3-((4-(trifluoromethyl)piperidin-1-yl)methyl)quinolin-6-yl)bis(1,2-dimethyl-1H-imidazol-5-yl)methanol], the IC50 in assay [2] (Homo sapiens) came to 17 nM.
